{"source": "paper PMC11127046", "about": "“Three-component systems represent a common pathway for extracytoplasmic addition of pentofuranose sugars into bacterial glycans” (Proceedings of the National Academy of Sciences of the …, 2024)", "biological_target": "T1, ORF15 (polyprenyl phosphoribofuranose synthase, PPPRS) (Citrobacter youngae, UniProt A0A2Z4BV67)", "T1 construct": "gene ubiA; full-length two-domain integral membrane protein (N-terminal PRP/HAD, C-terminal UbiA-type PPPRS); plasmid-expressed, membranes used as enzyme", "T1 sequence (A0A2Z4BV67 1-483)": "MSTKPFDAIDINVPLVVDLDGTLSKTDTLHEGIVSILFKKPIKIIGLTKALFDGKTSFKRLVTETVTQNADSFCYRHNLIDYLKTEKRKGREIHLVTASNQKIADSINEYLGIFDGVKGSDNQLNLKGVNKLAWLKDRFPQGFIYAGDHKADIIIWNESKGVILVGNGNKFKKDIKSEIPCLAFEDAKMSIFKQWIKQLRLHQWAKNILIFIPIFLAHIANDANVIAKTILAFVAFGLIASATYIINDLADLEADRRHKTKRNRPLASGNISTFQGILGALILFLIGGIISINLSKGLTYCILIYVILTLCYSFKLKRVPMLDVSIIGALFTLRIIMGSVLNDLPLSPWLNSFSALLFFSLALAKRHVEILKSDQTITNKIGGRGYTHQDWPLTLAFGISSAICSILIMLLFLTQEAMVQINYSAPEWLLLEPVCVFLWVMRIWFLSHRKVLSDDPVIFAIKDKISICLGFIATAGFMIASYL", "test": "TLC, MS and NMR of product formed by membranes", "format": "biochemical", "conditions": "[…] °C, […] h, expressed membranes", "data": [{"smiles": "CC(C)=CCC/C(C)=C/CC/C(C)=C/COP(=O)(O)O", "note": "[compound 1, farnesyl-phosphate]", "values": [{"measurement": "TLC, MS and NMR of product formed by membranes", "setting": "[…] acceptor, […] PRPP, […] MgCl2, […] HEPES pH […]", "value": "revealing production of a slower migrating species that was dependent on the presence of PRPP"}]}, {"smiles": "O=P(O)(O)OC[C@H]1O[C@H](OP(=O)(O)OP(=O)(O)O)[C@H](O)[C@@H]1O", "note": "[phosphoribosylpyrophosphate]", "values": [{"measurement": "TLC, MS and NMR of product formed by membranes", "setting": "[…] donor, […] farnesylP acceptor, […] MgCl2, pH […]", "value": "membranes, PRPP donor, and farnesylP acceptor were analyzed by thin layer chromatography (TLC)"}]}]}
